Earlier results in publication PMC7114426 (Virus Research, 2012).

Test system: nsp16

| Compound | inhibition of the MTase activity of nsp16 |
| --- | --- |
| O=C(O)C1=CC(=C(c2ccc(O)c(C(=O)O)c2)c2ccc(O)c(C(=O)O)c2)C=CC1=O [ATA, aurintricarboxylic acid] | inhibit the MTase activity of nsp16 |
| Nc1ncnc2c1ncn2[C@@H]1O[C@H](C[C@@H](N)CC[C@H](N)C(=O)O)[C@@H](O)[C@H]1O [sinefungin] | inhibit the MTase activity of nsp16 |
| Nc1ncnc2c1ncn2[C@@H]1O[C@H](CSCC[C@H](N)C(=O)O)[C@@H](O)[C@H]1O [SAH, S-adenosyl-l-homocysteine] | inhibit the MTase activity of nsp16 |
